The values below come from publication PMC4167909 (Analytical biochemistry, 2014).

By Ki is commonly meant the equilibrium dissociation constant of an inhibitor or competing ligand from its target.

In experiment [1] the target is T1, OXA-24/40 (Acinetobacter baumannii, UniProt Q8RLA6). Description: competitive inhibition of ampicillin hydrolysis. The format is biochemical.
In experiment [2] the target is OXA-24/40 (Acinetobacter baumannii, UniProt Q8RLA6, V130D). Description: SDS-PAGE fluorescent acyl-enzyme detection, single-turnover conditions. Format: binding.
Experiment [3] addresses T1, OXA-24/40. The experiment is described as follows: kinetic competition with ampicillin as reporter substrate. Format: biochemical.

`C[C@@H](O)[C@H]1C(=O)N2C(C(=O)O)=C(S[C@H]3C[C@@H](C(=O)N(C)C)N(C(=S)Nc4ccc5c(c4)C(=O)OC54c5ccc(O)cc5Oc5cc(O)ccc54)C3)[C@H](C)[C@H]12` [FM, fluorescein-meropenem] registered a Ki in experiment [1] of 43 nM. In addition, the “SDS-PAGE fluorescent acyl-enzyme detection, single-turnover conditions” value in experiment [2] is “All Val130 substitutions showed some degree of fluorescence labeling, but the Val130Asp, Val130Thr and Val130Asn substitutions most severely reduced deacylation”.
Take `C[C@@H](O)[C@H]1C(=O)N2C(C(=O)O)=C(S[C@@H]3CN[C@H](C(=O)N(C)C)C3)[C@H](C)[C@H]12` [meropenem]: affinity in experiment [3] was put at a Ki of 18 nM.
